US20230172867A1, “A METHOD FOR TREATING CANCER WITH AN ORAL DOSAGE FORM OF AN FGFR4 INHIBITOR” (Eisai R&D Management Co., Ltd., priority 2020, published 2023)
“Also recorded” adds a separate entry of the source. Like-named read-outs stand apart in the source and are kept apart here.

Experiment: Pharmacokinetic measurements of H3B-6527 capsules in patients (trial NCT02834780), plasma LC-MS/MS
Type: in vivo, human
Settings: for Cmax / half-life / Tmax / AUC: human, plasma, oral; for Cmax: read-out: Cmax, geometric mean (CV%); for half-life: read-out: Half-life, geometric mean (CV%) (converted); for Tmax: read-out: Tmax, median (min-max); for AUC: read-out: AUC, geometric mean (CV%)
Excerpt: A description of the first in human clinical trial for H3B-6527 can be found at the ClinicalTrials.gov by searching for trial identifier NCT02834780. In summary, the trial included a study population having the following characteristics: Adult patients ≥18 years old with advanced HCC or ICC; Progression after at least one prior therapy; ECOG score of 0 or 1; Well compensated liver function; FGF19-positive (dose expansion phase only); Excluded if patients have significant active infections [except hepatitis B virus (HBV) and hepatitis C virus (HCV)], gastric or esophageal varices, or previous FGF19-FGFR4 targeted therapy.
Blood samples are collected at the planned time points from each patient and centrifuged. The plasma portion of each sample is then transferred to a K2EDTA tube, which is then shipped to a bioanalytical lab for concentration measurement using LC-MS/MS. The concentration data are then analyzed using Phoenix® WinNonlin software to obtain PK parameters. The obtained PK parameters are further summarized using analytical software.
Drug Administration and Dosage for Dose Escalation: H3B-6527 was administered orally QD or BID on a 21-day cycle. […] Patients in dose escalation phase were treated regardless of FGF19 status. Response determined by RECIST 1.1/modified RECIST every 6 weeks
Further collection and collation of the PK results of the trial of Example 2 at a later point in time are reflected in the following Table 5:
The results of further analysis of the PK data of the trial of Example 2 with the actual date and time of the dose administration and PK sampling after QC, an update from the results of a preliminary analysis with the nominal (i.e. planned) dosing/PK sampling date/time presented in Example 3, are reflected in the following Table 6. In this example the number of patients from which each PK parameter was calculated is shown, rather than the total number of patients receiving a particular dose and regimen as in Table 5.

[1] = 300 mg, 300 mg QD, fasted, Day 1, Table 5, nominal times
[2] = 300 mg, 300 mg QD, fasted, Day 1, Table 6, actual times after QC
[3] = 300 mg, 300 mg QD, fasted, Day 8, Table 5, nominal times
[4] = 300 mg, 300 mg QD, fasted, Day 8, Table 6, actual times after QC
[5] = 500 mg, 500 mg BID, fasted, Day 1, Table 5, nominal times
[6] = 500 mg, 500 mg BID, fasted, Day 1, Table 6, actual times after QC
[7] = 500 mg, 500 mg BID, fasted, Day 8, Table 5, nominal times
[8] = 500 mg, 500 mg BID, fasted, Day 8, Table 6, actual times after QC
[9] = 500 mg, 500 mg BID, fed, Day 1, Table 5, nominal times
[10] = 500 mg, 500 mg BID, fed, Day 1, Table 6, actual times after QC
[11] = 500 mg, 500 mg BID, fed, Day 8, Table 5, nominal times
[12] = 500 mg, 500 mg BID, fed, Day 8, Table 6, actual times after QC
[13] = 600 mg, 600 mg QD, fasted, Day 1, Table 5, nominal times
[14] = 600 mg, 600 mg QD, fasted, Day 1, Table 6, actual times after QC
[15] = 600 mg, 600 mg QD, fasted, Day 8, Table 5, nominal times
[16] = 600 mg, 600 mg QD, fasted, Day 8, Table 6, actual times after QC
[17] = 600 mg, 600 mg QD, fed, Day 1, Table 5, nominal times
[18] = 600 mg, 600 mg QD, fed, Day 1, Table 6, actual times after QC
[19] = 600 mg, 600 mg QD, fed, Day 8, Table 5, nominal times

Structure (SMILES): C=CC(=O)Nc1cc(N2CCN(CC)CC2)ccc1Nc1cc(N(C)C(=O)Nc2c(Cl)c(OC)cc(OC)c2Cl)ncn1 [H3B-6527, N-(2-((6-(3-(2,6-dichloro-3,5-dimethoxyphenyl)-1-methylureido)pyrimidin-4-yl)amino)-5-(4-ethylpiperazin-1-yl)phenyl)acrylamide]
- AUC, geometric mean (CV%) (300 mg QD, fasted, Day 1, Table 5, nominal times): 73 ng·h/mL
- AUC, geometric mean (CV%) (300 mg QD, fasted, Day 8, Table 5, nominal times): 53 ng·h/mL
- AUC, geometric mean (CV%) (500 mg BID, fasted, Day 1, Table 5, nominal times): 470 ng·h/mL
- AUC, geometric mean (CV%) (500 mg BID, fasted, Day 8, Table 5, nominal times): 1200 ng·h/mL
- AUC, geometric mean (CV%) (500 mg BID, fed, Day 1, Table 5, nominal times): 769 ng·h/mL
- AUC, geometric mean (CV%) (500 mg BID, fed, Day 8, Table 5, nominal times): 1080 ng·h/mL
- exposure in plasma across doses (500 mg to 2000 mg administered with food (FIG. 4)): appeared to be similar across the doses from 500 mg to 2000 mg
- AUC, geometric mean (CV%) (600 mg QD, fasted, Day 1, Table 5, nominal times): 175 ng·h/mL
- AUC, geometric mean (CV%) (600 mg QD, fasted, Day 8, Table 5, nominal times): 636 ng·h/mL
- AUC, geometric mean (CV%) (600 mg QD, fed, Day 1, Table 5, nominal times): 1280 ng·h/mL
- AUC, geometric mean (CV%) (600 mg QD, fed, Day 8, Table 5, nominal times): 502 ng·h/mL
- AUC, geometric mean (CV%) (700 mg BID, fed, Day 1, Table 5, nominal times): 590 ng·h/mL
- AUC, geometric mean (CV%) (700 mg BID, fed, Day 8, Table 5, nominal times): 640 ng·h/mL
- AUC, geometric mean (CV%) (1000 mg QD, fasted, Day 1, Table 5, nominal times): 602 ng·h/mL
- AUC, geometric mean (CV%) (1000 mg QD, fasted, Day 8, Table 5, nominal times): 912 ng·h/mL
- AUC, geometric mean (CV%) (1000 mg QD, fed, Day 1, Table 5, nominal times): 1100 ng·h/mL
- AUC, geometric mean (CV%) (1000 mg QD, fed, Day 8, Table 5, nominal times): 865 ng·h/mL
- AUC, geometric mean (CV%) (1400 mg QD, fasted, Day 1, Table 5, nominal times): 400 ng·h/mL
- AUC, geometric mean (CV%) (1400 mg QD, fasted, Day 8, Table 5, nominal times): 1450 ng·h/mL
- AUC, geometric mean (CV%) (1400 mg QD, fed, Day 1, Table 5, nominal times): 5670 ng·h/mL
- AUC, geometric mean (CV%) (1400 mg QD, fed, Day 8, Table 5, nominal times): 5450 ng·h/mL
- AUC, geometric mean (CV%) (2000 mg QD, fed, Day 1, Table 5, nominal times): 3030 ng·h/mL
- AUC, geometric mean (CV%) (2000 mg QD, fed, Day 8, Table 5, nominal times): 1920 ng·h/mL
- minimal plasma concentration, BID versus QD schedule (Cycle 1, Day 8 (FIG. 1)): A higher minimal plasma concentration was maintained on the BID schedule
- plasma levels / exposure versus dose (QD, fasted, Cycle 1, Day 8 (FIG. 1), preliminary PK analysis): increased with dose from 300 to 1000 mg QD and plateaued; also recorded: increased with dose up to 1000 mg QD
- Cmax [1]: 20 ng/mL
- half-life [1]: 1.4 h
- Tmax [1]: 2 h
- AUC [2]: 72.7 ng·h/mL
- Cmax [2]: 20.3 ng/mL
- half-life [2]: 2.52 h
- Tmax [2]: 2 h
- Cmax [3]: 11 ng/mL
- half-life [3]: 1.2 h
- Tmax [3]: 4 h
- AUC [4]: 53 ng·h/mL
- Cmax [4]: 10.8 ng/mL
- half-life [4]: 3.55 h
- Tmax [4]: 4 h
- Cmax [5]: 124 ng/mL
- half-life [5]: 1.9 h
- Tmax [5]: 2.75 h
- AUC [6]: 292 ng·h/mL
- Cmax [6]: 124 ng/mL
- half-life [6]: 2.41 h
- Tmax [6]: 2.12 h
- Cmax [7]: 253 ng/mL
- half-life [7]: 1.8 h
- Tmax [7]: 3.05 h
- AUC [8]: 1110 ng·h/mL
- Cmax [8]: 251 ng/mL
- half-life [8]: 2.96 h
- Tmax [8]: 4 h
- Cmax [9]: 255 ng/mL
- half-life [9]: 2.1 h
- Tmax [9]: 4.02 h
- AUC [10]: 768 ng·h/mL
- Cmax [10]: 255 ng/mL
- half-life [10]: 2.33 h
- Tmax [10]: 4.02 h
- Cmax [11]: 262 ng/mL
- half-life [11]: 2.3 h
- Tmax [11]: 4 h
- AUC [12]: 814 ng·h/mL
- Cmax [12]: 211 ng/mL
- half-life [12]: 2.99 h
- Tmax [12]: 4 h
- Cmax [13]: 74 ng/mL
- half-life [13]: 2.4 h
- Tmax [13]: 1 h
- AUC [14]: 175 ng·h/mL
- Cmax [14]: 74.5 ng/mL
- half-life [14]: 7.19 h
- Tmax [14]: 1 h
- Cmax [15]: 194 ng/mL
- half-life [15]: 4.8 h
- Tmax [15]: 0.52 h
- AUC [16]: 636 ng·h/mL
- Cmax [16]: 194 ng/mL
- half-life [16]: 7.32 h
- Tmax [16]: 0.52 h
- Cmax [17]: 241 ng/mL
- half-life [17]: 3.7 h
- Tmax [17]: 4 h
- AUC [18]: 1630 ng·h/mL
- Cmax [18]: 395 ng/mL
- half-life [18]: 3.72 h
- Tmax [18]: 4 h
- Cmax [19]: 100 ng/mL
- half-life [19]: 3.2 h
